Measurements: US10533015B1, “Opioid receptor antagonist prodrugs” (Nirsum Laboratories, Inc., priority 2019, dated 2020)
Read-outs that look alike come from different tables or passages of the source.

Legend:
[1] = Polymorph screening of solid state drug substances; conditions: for Dry method and appearance: after stirring 50 °C 72 hours, dried solid; for XRPD results (Dried): dried solid after 50 °C 72 hours; for Visual observation 50° C. / Visual observation RT: target conc. 100 mg/ml
[2] = Plasma stability assay, rat plasma; assay type: in vitro ADME; conditions: 10 μM, 37° C.
Description: Plasma stability determination of the test compounds in rat, dog, cynomolgus monkey and human plasma is performed using HPLC-MS. For rat, incubations are carried out in 96-well polypropylene plates in 5 aliquots of 70 μL each (one for each time point). […] Five time points are analyzed (0, 15, 120, 480 and 1440 min). For dog, monkey and human, test compounds (2 μM, final solvent concentration 1%) were also incubated at 37° C. and analyzed at five time points (0, 10, 30, 60 and 120 min). All incubations are performed in duplicates. The samples are analyzed by HPLC-MS. The percentage of parent compound remaining after incubation in plasma is determined.

[3] = heating temp. 40 °C, obs. temp. 40 °C
[4] = heating temp. 60 °C, obs. temp. 40 °C
[5] = compound after slurry in EtOAc, temperatures N/A
[6] = heating temp. 60 °C, obs. temp. 25 °C

Compound	Dry method and appearance ([1]; Acetone)	XRPD results (Dried) ([1]; Acetone)	Visual observation 50° C. ([1]; Acetone)	Visual observation RT ([1]; Acetone)	Dry method and appearance ([1]; EtOAc)	XRPD results (Dried) ([1]; EtOAc)	Visual observation 50° C. ([1]; EtOAc)	Visual observation RT ([1]; EtOAc)	Dry method and appearance ([1]; Heptane)	XRPD results (Dried) ([1]; Heptane)	Visual observation 50° C. ([1]; Heptane)	Visual observation RT ([1]; Heptane)	Dry method and appearance ([1]; Isopropanol)	XRPD results (Dried) ([1]; Isopropanol)	Visual observation 50° C. ([1]; Isopropanol)	Visual observation RT ([1]; Isopropanol)	Dry method and appearance ([1]; MTBE)	XRPD results (Dried) ([1]; MTBE)	Visual observation 50° C. ([1]; MTBE)	Visual observation RT ([1]; MTBE)	also measured
C=C1CC[C@@]2(O)C3Cc4ccc(OC(=O)CCCCCCCCCCCCCCCCCCCCC)c5c4[C@@]2(CCN3CC2CC2)[C@H]1O5 [Compound 14, (4aS,7aS,12bS)-3-(cyclopropylmethyl)-4a-hydroxy-7-methylene-2,3,4,4a,5,6,7,7a-octahydro-1H-4,12-methanobenzofuro[3,2-e]isoquinolin-9-yl docosanoate]	Evaporation/white powder	Pattern A	Clear	Slimy	Evaporation/white powder	Pattern A	Clear	Slurry	Centrifugation/white powder	Pattern B	Slurry	Slurry	Evaporation/white powder	Pattern A	Clear	Clear	Evaporation/white powder	Pattern A	Clear	Clear	Approximate Solubility (mg/mL) in Excipient: Cottonseed oil [3]: <50 mg/mL; Approximate Solubility (mg/mL) in Excipient: Cottonseed oil [4]: <25 mg/mL; Approximate Solubility (mg/mL) in Excipient: Ethanol [3]: 69 to 83 mg/mL; Approximate Solubility (mg/mL) in Excipient: Sesame oil [3]: <51 mg/mL; Approximate Solubility (mg/mL) in Excipient: Sesame oil [4]: <25 mg/mL; Equilibrium solubility (mg/mL) Water [5]: <0.0005 mg/mL; Equilibrium solubility (mg/mL) Water (compound after slurry in Heptane, temperatures N/A): <0.0005 mg/mL; % remaining at time point ([2]; 0 min): 100%; % remaining at time point ([2]; 15 min): 94%; % remaining at time point ([2]; 120 min): 112%; % remaining at time point ([2]; 480 min): 107%; % remaining at time point ([2]; 1440 min): 120%
CCCCCCCCCCCCCCCCOC(=O)Oc1ccc2c3c1O[C@H]1C(=O)CC[C@@]4(O)C(C2)N(CC2CC2)CC[C@]314 [Compound 21, (4aS,7aR,12bS)-3-(cyclopropylmethyl)-4a-hydroxy-7-oxo-2,3,4,4a,5,6,7,7a-octahydro-1H-4,12-methanobenzofuro[3,2-e]isoquinolin-9-yl hexadecyl carbonate]	Evaporation/white powder	Pattern A	Clear	Slurry	Evaporation/white powder	Pattern A	Clear	Slurry	Evaporation/white powder	Pattern A	Clear	Slurry	Evaporation/white powder	Pattern A	Clear	Slurry	Evaporation/white powder	Pattern A	Clear	Clear	Approximate Solubility (mg/mL) in Excipient: Cottonseed oil [4]: 101 to 134.8 mg/mL; Approximate Solubility (mg/mL) in Excipient: Ethanol [4]: 50 to 100 mg/mL; Approximate Solubility (mg/mL) in Excipient: Sesame oil [4]: 101 to 134.5 mg/mL; % remaining at time point ([2]; 0 min): 100%; % remaining at time point ([2]; 15 min): 73.5%; % remaining at time point ([2]; 120 min): 68.3%; % remaining at time point ([2]; 480 min): 59.8%; % remaining at time point ([2]; 1440 min): 40.9%
C=C1CC[C@@]2(O)C3Cc4ccc(OC(=O)OCCCCCCCCCCCCCC)c5c4[C@@]2(CCN3CC2CC2)[C@H]1O5 [Compound 31, (4aS,7aS,12bS)-3-(cyclopropylmethyl)-4a-hydroxy-7-methylene-2,3,4,4a,5,6,7,7a-octahydro-1H-4,12-methanobenzofuro[3,2-e]isoquinolin-9-yl tetradecyl carbonate]	Evaporation/white powder	Pattern A	Clear	Slurry	Evaporation/white powder	Pattern A	Clear	Clear	Evaporation/white powder	Pattern A	Clear	Slurry	Evaporation/white powder	Pattern A	Clear	Clear	Evaporation/white powder	Pattern A	Clear	Slurry	Approximate Solubility (mg/mL) in Excipient: Cottonseed oil [6]: >416.9 mg/mL; Approximate Solubility (mg/mL) in Excipient: Sesame oil [6]: >413.5 mg/mL; Equilibrium solubility (mg/mL) Water [3]: <0.001 mg/mL; % remaining at time point ([2]; 0 min): 100%; % remaining at time point ([2]; 15 min): 123.2%; % remaining at time point ([2]; 120 min): 73.5%; % remaining at time point ([2]; 480 min): 54.4%; % remaining at time point ([2]; 1440 min): 46.4%
CCCCCCCCCCCCOC(=O)Oc1ccc2c3c1O[C@H]1C(=O)CC[C@@]4(O)C(C2)N(CC2CC2)CC[C@]314 [Compound 11, (4aS,7aR,12bS)-3-(cyclopropylmethyl)-4a-hydroxy-7-oxo-2,3,4,4a,5,6,7,7a-octahydro-1H-4,12-methanobenzofuro[3,2-e]isoquinolin-9-yl dodecyl carbonate]	Evaporation/white powder	Pattern A	Clear	Slurry	Evaporation/white powder	Pattern A	Clear	Slurry	Evaporation/white powder	Pattern B	Clear	Clear	Evaporation/white powder	Pattern A	Clear	Slurry	Evaporation/white powder	Pattern A	Clear	Clear	Approximate Solubility (mg/mL) in Excipient: Cottonseed oil [3]: >407 mg/mL; Approximate Solubility (mg/mL) in Excipient: Cottonseed oil [6]: <51 mg/mL; Approximate Solubility (mg/mL) in Excipient: Ethanol [3]: >218 mg/mL; Approximate Solubility (mg/mL) in Excipient: Sesame oil [3]: >407 mg/mL; Approximate Solubility (mg/mL) in Excipient: Sesame oil [6]: <50 mg/mL; % remaining at time point ([2]; 0 min): 100%; % remaining at time point ([2]; 15 min): 0.7%; % remaining at time point ([2]; 120 min): 0.3%; % remaining at time point ([2]; 480 min): 0.2%; % remaining at time point ([2]; 1440 min): 0%
CCCCCCCCCCCCCCCC(=O)Oc1ccc2c3c1O[C@H]1C(=O)CC[C@@]4(O)C(C2)N(CC2CC2)CC[C@]314 [Compound 55, (4aS,7aR,12bS)-3-(cyclopropylmethyl)-4a-hydroxy-7-oxo-2,3,4,4a,5,6,7,7a-octahydro-1H-4,12-methanobenzofuro[3,2-e]isoquinolin-9-yl palmitate]	Evaporation/white powder	Pattern B	Clear	Slurry	Evaporation/white powder	Pattern B	Clear	Slurry	Evaporation/white powder	Pattern B	Clear	Slurry	Evaporation/white powder	Pattern B	Clear	Slurry	Evaporation/white powder	Pattern B	Clear	Clear	Approximate Solubility (mg/mL) in Excipient: Cottonseed oil [6]: <50 mg/mL; Approximate Solubility (mg/mL) in Excipient: Cottonseed oil [4]: >400.1 mg/mL; Approximate Solubility (mg/mL) in Excipient: Ethanol [4]: >401.1 mg/mL; Approximate Solubility (mg/mL) in Excipient: Sesame oil [6]: <50 mg/mL; Approximate Solubility (mg/mL) in Excipient: Sesame oil [4]: >394.8 mg/mL; Equilibrium solubility (mg/mL) Water [5]: <0.0005 mg/mL; % remaining at time point ([2]; 0 min): 100%; % remaining at time point ([2]; 15 min): 77.3%; % remaining at time point ([2]; 120 min): 47.2%; % remaining at time point ([2]; 480 min): 27.1%; % remaining at time point ([2]; 1440 min): 15.6%
